Reference: patent publication US12344595B2, “2-amino-n-phenyl-nicotinamides as NAV1.8 inhibitors” (Merck Sharp & Dohme LLC, priority 2018, dated 2025)

The compounds below were run against human Nav1.8 (Homo sapiens (Human), UniProt Q9Y5Y9) (assay: Nav1.8 Qube automated patch-clamp assay). Settings: Nav1.8 Qube Assay; human Nav1.8 channels stably expressed in HEK 293 cells.
Format: cell-based
In short: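 Whole-cell automated patch clamp was run at room temperature on HEK293 cells stably expressing the channel. A 1 Hz, 10 s train of 20 ms pulses to 10 mV from −90 mV (repolarizing to −67 mV) was applied. Peak currents at the 1st and 10th pulses gave resting and inactivated-state IC50 values by Hill fit.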

human Nav1.8, sequence (Q9Y5Y9 whole entry): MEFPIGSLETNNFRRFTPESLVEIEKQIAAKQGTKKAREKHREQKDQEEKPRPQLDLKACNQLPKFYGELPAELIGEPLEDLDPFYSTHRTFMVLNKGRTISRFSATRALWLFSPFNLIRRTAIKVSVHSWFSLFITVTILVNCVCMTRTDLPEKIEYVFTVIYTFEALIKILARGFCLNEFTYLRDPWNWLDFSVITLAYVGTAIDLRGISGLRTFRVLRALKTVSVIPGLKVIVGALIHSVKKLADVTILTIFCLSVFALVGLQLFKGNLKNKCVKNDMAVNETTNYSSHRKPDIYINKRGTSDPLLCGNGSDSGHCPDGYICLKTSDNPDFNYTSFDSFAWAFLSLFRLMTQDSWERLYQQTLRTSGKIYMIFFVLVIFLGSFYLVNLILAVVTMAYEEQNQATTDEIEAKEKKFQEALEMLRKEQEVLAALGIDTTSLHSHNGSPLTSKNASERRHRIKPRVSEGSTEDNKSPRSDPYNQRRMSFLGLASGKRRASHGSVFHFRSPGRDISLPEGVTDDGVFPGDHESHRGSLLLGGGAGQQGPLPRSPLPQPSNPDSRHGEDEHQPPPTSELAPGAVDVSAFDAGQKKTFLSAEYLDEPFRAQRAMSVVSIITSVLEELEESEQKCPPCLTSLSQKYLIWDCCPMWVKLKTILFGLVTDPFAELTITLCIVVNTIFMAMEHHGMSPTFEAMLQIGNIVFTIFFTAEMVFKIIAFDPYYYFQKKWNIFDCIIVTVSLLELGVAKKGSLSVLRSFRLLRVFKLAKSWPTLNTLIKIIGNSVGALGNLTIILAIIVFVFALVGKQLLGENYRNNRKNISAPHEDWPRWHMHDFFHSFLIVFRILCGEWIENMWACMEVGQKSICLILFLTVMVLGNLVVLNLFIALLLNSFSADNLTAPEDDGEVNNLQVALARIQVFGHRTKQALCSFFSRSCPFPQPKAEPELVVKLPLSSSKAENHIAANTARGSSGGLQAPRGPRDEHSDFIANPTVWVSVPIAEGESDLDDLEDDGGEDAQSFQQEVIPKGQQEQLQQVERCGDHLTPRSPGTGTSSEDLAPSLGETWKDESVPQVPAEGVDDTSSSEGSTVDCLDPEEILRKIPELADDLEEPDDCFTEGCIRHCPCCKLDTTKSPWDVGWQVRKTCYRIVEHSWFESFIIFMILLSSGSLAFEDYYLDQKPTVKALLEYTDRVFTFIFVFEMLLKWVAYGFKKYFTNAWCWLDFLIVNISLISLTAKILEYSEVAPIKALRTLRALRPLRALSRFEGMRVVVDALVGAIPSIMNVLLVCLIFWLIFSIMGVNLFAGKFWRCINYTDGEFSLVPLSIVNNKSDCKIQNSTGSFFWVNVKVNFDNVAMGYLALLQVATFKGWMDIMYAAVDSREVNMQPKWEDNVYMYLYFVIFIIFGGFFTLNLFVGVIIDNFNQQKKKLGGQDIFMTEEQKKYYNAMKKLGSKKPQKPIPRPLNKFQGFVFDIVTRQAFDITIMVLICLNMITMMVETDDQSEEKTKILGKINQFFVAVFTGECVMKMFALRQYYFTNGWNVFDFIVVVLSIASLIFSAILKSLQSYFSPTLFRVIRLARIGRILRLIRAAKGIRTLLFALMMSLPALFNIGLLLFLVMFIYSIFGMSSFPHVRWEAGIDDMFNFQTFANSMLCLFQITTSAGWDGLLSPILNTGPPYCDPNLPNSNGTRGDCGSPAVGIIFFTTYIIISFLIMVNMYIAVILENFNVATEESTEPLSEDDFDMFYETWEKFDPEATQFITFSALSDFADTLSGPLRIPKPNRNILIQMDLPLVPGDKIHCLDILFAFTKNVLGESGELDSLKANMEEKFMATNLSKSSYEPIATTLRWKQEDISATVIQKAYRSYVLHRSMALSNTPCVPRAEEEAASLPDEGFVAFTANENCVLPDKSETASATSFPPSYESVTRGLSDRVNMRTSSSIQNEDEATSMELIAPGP

| SMILES | IC50 |
| --- | --- |
| NS(=O)(=O)c1cccc(NC(=O)c2cc(C(F)(F)F)cnc2N2CCCO[C@@H](C(F)(F)F)C2)c1 [Example 144, (R)—N-(3-sulfamoylphenyl)-5-(trifluoromethyl)-2-(2-(trifluoromethyl)-1,4-oxazepan-4-yl) nicotinamide] | 502 nM |
| C[C@@H]1CN(c2ncc(C(F)(F)F)cc2C(=O)Nc2cccc(S(N)(=O)=O)c2)C[C@@H](C(F)(F)F)O1 [Example 146, 2-[(2R,6S)-2-methyl-6-(trifluoromethyl)morpholin-4-yl]-N-(3-sulfamoylphenyl)-5-(trifluoromethyl) pyridine-3-carboxamide] | 26 nM |
| CC(C)c1cnc(N2CCCC(F)(F)CC2)c(C(=O)Nc2cccc(S(N)(=O)=O)c2)c1 [Example 162, 2-(4,4-difluoroazepan-1-yl)-5-isopropyl-N-(3-sulfamoylphenyl)nicotinamide] | 7.1 nM |
| NS(=O)(=O)c1cccc(NC(=O)c2cc(C(F)(F)F)cnc2N2CCCOCC2)c1 [Example 56, 2-(1,4-oxazepan-4-yl)-N-(3-sulfamoylphenyl)-5-(trifluoromethyl)-pyridine-3-carboxamide] | 448 nM |
| CC(C)(C)c1nc(N2CCCCC2)c(C(=O)Nc2cccc(S(N)(=O)=O)c2)cc1Cl [Example 40, 6-(tert-butyl)-5-chloro-2-(piperidin-1-yl)-N-(3-sulfamoylphenyl)nicotinamide] | 1180 nM |
| NS(=O)(=O)c1cccc(NC(=O)c2cc(-c3cccnc3)cnc2N2CCCCCC2)c1 [Example 34, 2-(azepan-1-yl)-5-(3-pyridyl)-N-(3-sulfamoyl-phenyl)pyridine-3-carboxamide] | 603 nM |
| CC(C)(C)c1ccc(C(=O)Nc2cccc(S(N)(=O)=O)c2)c(N2CCCCC2)n1 [Example 42, 6-(tert-butyl)-2-(piperidin-1-yl)-N-(3-sulfamoylphenyl)nicotinamide] | 2680 nM |
| NS(=O)(=O)c1cccc(NC(=O)c2cc(C(F)(F)F)cnc2N2CC3CCC3(C(F)(F)F)C2)c1 (single isomer, unassigned) [Example 131, N-(3-sulfamoylphenyl)-5-(trifluoromethyl)-2-[(1S,5S or 1R,5R)-1-(trifluoromethyl)-3-azabicyclo[3.2.0]heptan-3-yl]pyridine-3-carboxamide] | 113 nM |
| Cc1nc(N2CCCCC2)c(C(=O)Nc2cccc(C(N)=O)c2)c(C)c1Cl [Example 19, N-(3-carbamoyl-phenyl)-5-chloro-4,6-dimethyl-2-(1-piperidyl)pyridine-3-carboxamide] | 295 nM |
| N#Cc1cccc(NC(=O)c2cc(C(F)(F)F)cnc2N2CCCCCC2)c1 [Example 21, 2-(azepan-1-yl)-N-(3-cyanophenyl)-5-(trifluoromethyl)pyridine-3-carboxamide] | 254 nM |
| NS(=O)(=O)c1cccc(NC(=O)c2cc(C3CCC3)cnc2N2CCCC(F)(F)CC2)c1 [Example 159, 5-cyclobutyl-2-(4,4-difluoroazepan-1-yl)-N-(3-sulfamoylphenyl)nicotinamide] | 2.5 nM |
| NS(=O)(=O)c1cccc(NC(=O)c2cc(C3CCCC3)cnc2N2CCCCC2)c1 [Example 154, 5-cyclopentyl-2-(piperidin-1-yl)-N-(3-sulfamoylphenyl)-nicotinamide] | 1790 nM |
| NS(=O)(=O)c1cccc(NC(=O)c2cc(C(F)(F)F)cnc2N2CC3CCC(C3)C2)c1 (racemic) [Example 45, 2-[rac-3-azabicyclo[3.2.1]octan-3-yl]-N-(3-sulfamoyl-phenyl)-5-(trifluoro-methyl)pyridine-3-carboxamide] | 12 nM |
| C[Si](C)(C)c1cc(C(=O)Nc2cccc(S(N)(=O)=O)c2)c(N2CCCCCC2)nc1OC(F)(F)F [Example 85, 2-(azepan-1-yl)-N-(3-sulfamoylphenyl)-6-(trifluoromethoxy)-5-(trimethylsilyl)nicotinamide] | 1220 nM |
| NC(=O)c1cccc(NC(=O)c2cc(C(F)(F)F)cnc2N2CCCCCCC2)c1 [Example 107, 2-(azocan-1-yl)-N-(3-carbamoylphenyl)-5-(trifluoromethyl)-pyridine-3-carboxamide] | 73 nM |
| Cc1cc(C(=O)Nc2cccc(S(C)(=O)=O)c2)c(N2CCCCCC2)nc1C [Example 36, 2-(azepan-1-yl)-5,6-dimethyl-N-(3-methyl-sulfonylphenyl)pyridine-3-carboxamide] | 31 nM |
| CS(=O)(=O)c1cccc(NC(=O)c2cc(C(F)(F)F)cnc2N2CCCC(F)(F)CC2)c1 [Example 94, 2-(4,4-difluoroazepan-1-yl)-N-(3-methylsulfonylphenyl)-5-(trifluoromethyl)-pyridine-3-carboxamide] | 8.4 nM |
| Cc1nc(N2CCCC(F)(F)CC2)c(C(=O)Nc2cccc(S(C)(=O)=O)c2)cc1C#N [Example 176, 5-cyano-2-(4,4-difluoroazepan-1-yl)-6-methyl-N-(3-methyl-sulfonylphenyl) pyridine-3-carboxamide] | 7.3 nM |
| NS(=O)(=O)c1cccc(NC(=O)c2cc(C3CC3)cnc2N2CCCC(F)(F)CC2)c1 [Example 163, 5-cyclopropyl-2-(4,4-difluoroazepan-1-yl)-N-(3-sulfamoyl-phenyl)nicotinamide] | 7.3 nM |
| Cc1ccc(C(=O)Nc2cccc(S(N)(=O)=O)c2)c(N2CCCCCC2)n1 [Example 90, 2-(azepan-1-yl)-6-methyl-N-(3-sulfamoyl-phenyl)pyridine-3-carboxamide] | 17 nM |
| NS(=O)(=O)c1cccc(NC(=O)c2cc(C(F)(F)F)cnc2N2CCCCCC2)c1 [Example 44, 2-(azepan-1-yl)-N-(3-sulfamoylphenyl)-5-(trifluoromethyl)-pyridine-3-carboxamide] | 9.5 nM |
| NC(=O)c1cccc(NC(=O)c2cc(C(F)(F)F)cnc2N2CCCC(F)(F)C2)c1 [Example 110, N-(3-carbamoylphenyl)-2-(3,3-difluoro-1-piperidyl)-5-(tri-fluoromethyl)pyridine-3-carboxamide] | 3770 nM |
| NS(=O)(=O)c1cccc(NC(=O)c2cc(C(F)(F)F)cnc2N2CCS(=O)(=O)CC2)c1 [Example 70, 2-(1,1-dioxo-1,4-thiazinan-4-yl)-N-(3-sulfamoylphenyl)-5-(trifluoromethyl)pyridine-3-carboxamide] | 5480 nM |
| NS(=O)(=O)c1cccc(NC(=O)c2cc(C(F)(F)F)cnc2N2CC3CC(F)(F)C3C2)c1 (single isomer, unassigned) [Example 136, 2-[(1R,5S or 1S,5R)-6,6-difluoro-3-azabicyclo[3.2.0]heptan-3-yl]-N-(3-sulfamoyl-phenyl)-5-(trifluoromethyl)-pyridine-3-carboxamide] | 87 nM |
| Cc1cc(Cl)nc(N2CCCC(F)(F)CC2)c1C(=O)Nc1cccc(S(C)(=O)=O)c1 [Example 8, 6-chloro-2-(4,4-difluoroazepan-1-yl)-4-methyl-N-(3-methyl-sulfonylphenyl)pyridine-3-carboxamide] | 5.8 nM |
| NS(=O)(=O)c1cccc(NC(=O)c2cc(C(F)(F)F)cnc2N2CCC3(CCCO3)CC2)c1 [Example 72, 2-(1-oxa-8-azaspiro[4.5]decan-8-yl)-N-(3-sulfamoyl-phenyl)-5-(trifluoro-methyl)pyridine-3-carboxamide] | 6610 nM |
| CC12CCN(c3ncc(C(F)(F)F)cc3C(=O)Nc3cccc(S(N)(=O)=O)c3)CC1C2(F)F (single isomer, unassigned) [Example 128, 2-[(1R,6R or 1S,6S)-7,7-difluoro-6-methyl-3-azabicyclo[4.1.0]heptan-3-yl]-N-(3-sulfamoyl-phenyl)-5-(trifluoro-methyl)-pyridine-3-carboxamide] | 14 nM |
